The text below walks through data of US10093630B2, “Pyrazole compounds and methods of making and using same” (ABIDE THERAPEUTICS, INC., priority 2014, dated 2018).

Bounds are passed on as bounds.

Experiment in all cases: In vitro competitive activity-based protein profiling (gel-based, FP-Rh or HT-01 probe)
What all share (format): biochemical

The target of experiment [1] is T1, ABHD6 (Mus musculus, UniProt Q8R2Y0).
T1 construct: Proteomes (mouse brain membrane fraction or cell lysates); from tissue; host or cells: mouse brain membrane fraction (or cell lysates, not specified)
T1 sequence (Q8R2Y0 1-336): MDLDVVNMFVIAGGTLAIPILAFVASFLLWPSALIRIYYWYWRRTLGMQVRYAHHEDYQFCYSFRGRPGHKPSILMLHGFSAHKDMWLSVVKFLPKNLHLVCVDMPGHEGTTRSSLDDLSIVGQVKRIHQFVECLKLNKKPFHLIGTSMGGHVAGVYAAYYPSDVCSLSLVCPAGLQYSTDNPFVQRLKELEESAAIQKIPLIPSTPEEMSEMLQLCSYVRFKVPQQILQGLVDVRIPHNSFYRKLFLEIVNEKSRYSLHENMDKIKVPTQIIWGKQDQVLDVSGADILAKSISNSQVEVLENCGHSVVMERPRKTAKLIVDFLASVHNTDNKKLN
The note with it: for inhibition at 1 µM: 1 μM inhibitor, gel-based competitive ABPP, read-out: % Inhibition at 1 μM, C = ABHD6. The essentials: (§1)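 Competitive labelling format in mouse brain membrane fractions or lysates at 1.0 mg/mL total protein: compounds preincubate 30 min at 37° C, activity probe FP-Rh or HT-01 then reacts 30 min at 37° C. Gel band fluorescence gives target activity.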

Experiment [2] has as its target T2, FAAH (Mus musculus, UniProt O08914).
T2 construct: Proteomes (mouse brain membrane fraction or cell lysates); from tissue; host or cells: mouse brain membrane fraction (or cell lysates, not specified)
T2 sequence (O08914 1-579): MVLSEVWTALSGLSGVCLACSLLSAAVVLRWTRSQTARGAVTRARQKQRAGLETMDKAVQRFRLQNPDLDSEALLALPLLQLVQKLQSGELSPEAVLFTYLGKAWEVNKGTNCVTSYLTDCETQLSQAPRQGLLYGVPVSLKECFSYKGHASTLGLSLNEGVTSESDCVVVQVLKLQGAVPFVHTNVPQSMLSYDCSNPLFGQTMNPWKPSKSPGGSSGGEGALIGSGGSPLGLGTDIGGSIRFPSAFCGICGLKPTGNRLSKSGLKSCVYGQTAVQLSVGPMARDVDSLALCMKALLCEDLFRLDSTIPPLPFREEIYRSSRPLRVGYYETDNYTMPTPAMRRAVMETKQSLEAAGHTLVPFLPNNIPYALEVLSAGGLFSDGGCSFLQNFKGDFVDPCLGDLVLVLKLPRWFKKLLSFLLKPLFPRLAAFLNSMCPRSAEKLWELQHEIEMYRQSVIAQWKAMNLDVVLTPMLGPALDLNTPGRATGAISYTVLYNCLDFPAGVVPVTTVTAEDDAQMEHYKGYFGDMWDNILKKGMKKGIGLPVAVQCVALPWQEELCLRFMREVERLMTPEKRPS
Conditions: for inhibition at 1 µM: 1 μM inhibitor, gel-based competitive ABPP, read-out: % Inhibition at 1 μM, B = FAAH. In outline: as §1

For experiment [3], the target named is T3, MAGL (Mus musculus, UniProt O35678).
T3 construct: Proteomes (mouse brain membrane fraction or cell lysates); from tissue; host or cells: mouse brain membrane fraction (or cell lysates, not specified)
T3 sequence (O35678 1-303): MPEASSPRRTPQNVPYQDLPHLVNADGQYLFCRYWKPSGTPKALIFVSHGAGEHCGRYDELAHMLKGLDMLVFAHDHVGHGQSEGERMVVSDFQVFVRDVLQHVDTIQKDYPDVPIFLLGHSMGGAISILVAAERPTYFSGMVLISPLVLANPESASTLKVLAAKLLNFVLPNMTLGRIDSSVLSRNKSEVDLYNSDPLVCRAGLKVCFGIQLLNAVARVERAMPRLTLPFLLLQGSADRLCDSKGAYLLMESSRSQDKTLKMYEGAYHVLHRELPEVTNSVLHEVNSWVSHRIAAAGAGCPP
The note with it: for inhibition at 1 µM: 1 μM inhibitor, gel-based competitive ABPP. The essentials:
as §1

The target of experiment [4] is T4, PLA2G7 (Mus musculus, UniProt Q60963).
T4 construct: Proteomes (mouse brain membrane fraction or cell lysates); from tissue; host or cells: mouse brain membrane fraction (or cell lysates, not specified)
T4 sequence (Q60963 22-440): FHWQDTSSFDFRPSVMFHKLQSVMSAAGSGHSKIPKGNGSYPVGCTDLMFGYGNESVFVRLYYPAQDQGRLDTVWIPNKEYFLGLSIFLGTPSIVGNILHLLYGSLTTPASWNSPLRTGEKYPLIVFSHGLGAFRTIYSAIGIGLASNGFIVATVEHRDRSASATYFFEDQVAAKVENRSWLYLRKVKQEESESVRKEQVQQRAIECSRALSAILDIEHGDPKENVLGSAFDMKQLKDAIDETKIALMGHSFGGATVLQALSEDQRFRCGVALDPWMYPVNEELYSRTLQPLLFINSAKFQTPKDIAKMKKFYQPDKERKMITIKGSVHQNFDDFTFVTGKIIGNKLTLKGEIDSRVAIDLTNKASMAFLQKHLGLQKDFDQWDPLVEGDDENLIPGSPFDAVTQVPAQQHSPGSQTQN
The note with it: for inhibition at 1 µM: 1 μM inhibitor, gel-based competitive ABPP, read-out: % Inhibition at 1 μM, D = PLA2G7. The essentials:
as §1

As usually defined, the inhibition is the change of the read-out against control, counted positive when it falls. With `CCN(Cc1ccc(N2CCOCC2)cc1)C(=O)n1cc(C)cn1` [Example 265, N-Ethyl-4-methyl-N-(4-morpholinobenzyl)-1H-pyrazole-1-carboxamide], the inhibition at 1 µM in experiment [1], in experiment [2], in experiment [3] and in experiment [4] was less than 25% each time.
For orientation: IC50 means the concentration that gives 50% inhibition. Take `CCN(Cc1ccc(OC)cc1)C(=O)n1cc(C#N)cn1` [Example 258, 4-Cyano-N-ethyl-N-(4-methoxybenzyl)-1H-pyrazole-1-carboxamide]: the inhibition at 1 µM in experiment [1] is less than 25%; in experiment [2], greater than 75%; in experiment [3] it was greater than 75%; in experiment [4], less than 25%. Also, the half-inhibitory concentration (IC50) in experiment [1] (mouse brain membrane fraction or cell lysates, 30 min preincubation at 37° C., read-out: Mouse (IC50 value, nM) ABHD6) was greater than 1000 nM; in experiment [2] (mouse brain membrane fraction or cell lysates, 30 min preincubation at 37° C., read-out: Mouse (IC50 value, nM) FAAH) it was less than 100 nM; in experiment [3] (mouse brain membrane fraction or cell lysates, 30 min preincubation at 37° C., read-out: Mouse (IC50 value, nM) MAGL) it was 100 to 1000 nM; in experiment [4] (mouse brain membrane fraction or cell lysates, 30 min preincubation at 37° C.), greater than 1000 nM.
